From patent US20220169654A1, “New Organic Compounds” (Servier Pharmaceuticals LLC, priority 2020, published 2022)

Tests used:
[1] = test system: HCT116 MTAP+/+; experiment: Inhibition of cellular proliferation, 4 days, Cell Titer Glo, HCT116 MTAP+/+; format: cell-based; details: Homo sapiens, HCT-116, 96 h, IC50 bin with Max Inh., read-out: 4 Day Relative Growth Inhibition (MTAP +/+)
Procedure: (§1) Test compound impact on cancer cell growth was assessed by treating cancer cells with compound for 4 days and then measuring proliferation using an ATP-based cell proliferation readout (Cell Titer Glo, Promega Corporation).
(§2) In a typical assay an isogenic pair of HCT116 human colon carcinoma cell lines which vary only in MTAP deletion status (HCT116 MTAP+/+ and HCT116 MTAP−/−) were plated in 96-well dishes at appropriate cell density. Following 24 hours, cells were then treated with the candidate MAT2A inhibitor. Prior to addition to cells, the compound was first serially diluted in 100% DMSO, typically as a 3-fold serial dilution starting at 500× top dose with 10 dose points including DMSO only control. Compound was then transferred to a working stock plate in cell culture media by adding 5 μL of compound in DMSO to 495 μL of cell culture media. This working stock was then added to cells via a further 5-fold dilution, by adding 25 μL of working stock to 100 μL of cells in culture media. Following compound addition, cells were incubated at 37° C./5% CO2 for 4 days.
(§3) To measure inhibition of cellular proliferation, cells were allowed to equilibrate to room temperature for 30 minutes, and were then treated with 125 μL of Cell Titer Glo reagent. The plate was then covered with aluminum foil and shaken for 15 minutes to ensure complete mixing and full cell lysis. Luminescent signal was then measured using a plate-based luminometer Veritas version 1.9.2 using ATP standard curve to confirm assay reproducibility from run to run. This luminescence measure was converted to a proliferation index by subtracting from each data point the ATP luminescence signal measured from a bank (no cells) well and dividing by the ATP luminescence signal measured in 0.2% DMSO control well adjusted for signal in blank well. Compound activity was then represented as a percentage change in proliferation relative to a within-plate DMSO control against log 10 of compound concentration in molar (M) units.
(§4) Specific compounds disclosed herein were tested in the foregoing assay and they were determined to inhibit cellular proliferation with an IC50. See, Table 1 below.

[2] = test system: HCT116 MTAP−/−; experiment: Inhibition of cellular proliferation, 4 days, Cell Titer Glo, HCT116 MTAP−/−; format: cell-based; details: Homo sapiens, HCT-116, 96 h, IC50 bin with Max Inh., read-out: 4 Day Relative Growth Inhibition (MTAP −/−)
Procedure: as §1, §2, §3, §4

[3] = biological target: T1, MAT2A homodimer (Homo sapiens, UniProt P31153); experiment: MAT2A inhibition (biochemical, liberated phosphate, PiColorLock Gold); details: recombinant MAT2A homodimer; IC50 bin with Max Inh.; read-out: Enzyme Inhibition Bin
T1 construct: inferred from Ni sepharose purification with imidazole elution; made in house; host or cells: Sf9 insect cells, baculovirus (Bac to Bac, pFASTBAC1)
T1 sequence (P31153 whole entry): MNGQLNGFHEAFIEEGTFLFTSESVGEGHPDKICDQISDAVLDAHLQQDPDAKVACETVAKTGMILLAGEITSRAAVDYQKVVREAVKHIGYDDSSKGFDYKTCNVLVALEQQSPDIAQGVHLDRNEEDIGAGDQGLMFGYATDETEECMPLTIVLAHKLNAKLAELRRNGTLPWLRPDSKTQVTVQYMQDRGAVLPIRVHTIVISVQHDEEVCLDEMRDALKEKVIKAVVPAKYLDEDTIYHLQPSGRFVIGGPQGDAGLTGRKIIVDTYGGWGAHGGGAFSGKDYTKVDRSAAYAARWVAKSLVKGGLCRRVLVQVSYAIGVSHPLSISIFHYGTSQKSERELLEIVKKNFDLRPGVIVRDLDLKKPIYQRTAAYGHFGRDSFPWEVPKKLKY
Procedure: Mat2A protein was expressed by recombinant baculovirus in SF9 infected cells using the Bac to Bac system cloned into the pFASTBAC1 vector (Invitrogen, Carlsbad, Calif.). Recombinant MAT2A was isolated from the cell lysate of 150 g of infected cells using HP Ni sepharose column chromatography. Recombinant MAT2A homodimer was eluted with 250 and 500 mM imidazole, and fractions containing MAT2A were identified by sodium dodecyl sulfate polyacrylamide gel electrophoresis and pooled.
For determination of the inhibitory potency of compounds against the MAT2A homodimer, protein was diluted to 4 μg/mL in assay buffer (50 mM Tris, pH 8.0, 50 mM KCl, 15 mM MgCl2, 0.3 mM EDTA, 0.005% [w/v] bovine serum albumin [BSA]). Test compound was prepared in 100% dimethyl sulfoxide (DMSO) at 50× the desired final concentration. A 1 μL volume of compound dilution was added to 40 μL of enzyme dilution and the mixture was allowed to equilibrate for 60 minutes at 25° C. The enzymatic assay was initiated by the addition of 10 μL of substrate mix (500 μM ATP, pH 7.0, 400 μM L-methionine in 1× assay buffer), and the mixture was incubated for a further 60 minutes at 25° C. The reaction was halted and the liberated phosphate released by the enzyme in stoichiometric amounts by the production of S-adenosyl methionine (SAM) was measured using the PiColorLock Gold kit (Innova Biosciences, UK). Absolute product amounts were determined by comparison to a standard curve of potassium phosphate buffer, pH 8.0. The compounds were also tested in a secondary assay utilizing 1 μg/mL MAT2A and incubated for 5 hours at 25° C. before halting and processing as above.
Specific compounds disclosed herein were tested in the foregoing assay and they were determined to inhibit MAT2A with an IC50. See, Table 1 below.

[4] = test system: SAM in HCT116 human colon carcinoma cell line with MTAP gene deleted (MTAP −/−); experiment: Cellular assay of target engagement (SAM), LC-MS/MS, 72 hrs; format: cell-based; details: HCT-116, IC50 bin with Max Inh., read-out: Cell 72 h SAM Inhibition (MTAP −/−)
Procedure: Measurement of MAT2A activity in cells was made by direct quantitation of the abundance of the product of its enzymatic activity, SAM. Cancer cells were treated with candidate MAT2A inhibitors for a suitable incubation period, and the cells were then lysed using a reagent which quenched any further enzyme activity. Soluble metabolites including SAM were collected and SAM itself was directly measured from the lysate using quantitative LC-MS/MS.
A typical assay was performed using an HCT116 human colon carcinoma cell line which was genetically engineered to delete the MTAP gene (commercially available from Horizon Discovery). This cell line was utilized because it was determined that loss of the MTAP gene predicts sensitivity to MAT2A inhibitors. Cells were plated in 96-well dishes at appropriate cell density. Following 24 hours, cells were then treated with the candidate MAT2A inhibitor. Prior to addition to cells, the compound was first serially diluted in 100% DMSO, typically as a 3-fold serial dilution starting at 500× top dose with 10 dose points including DMSO only control. Compound was then transferred to a working stock plate in cell culture media by adding 5 μL of compound in DMSO to 495 μL of cell culture media. This working stock was then added to cells via a further 5-fold dilution, by adding 25 μL of working stock to 100 μL of cells in culture media. Following compound addition, cells were incubated at 37° C./5% CO2 for 72 hrs.
To quantitate SAM levels following compound treatment, cells were gently washed once in ammonium carbonate buffer (75 mM at pH 7.4), placed on dry ice, and lysed with metabolite extraction buffer (80% cold methanol and 20% water (v/v) with acetic acid at 1M final concentration with 200 ng/mL deuterated d3-SAM as internal control). Following centrifugation at 4° C. at 3,200 rpm for 30 minutes, the supernatant was collected and stored at −80° C. until analysis by Liquid Chromatography with tandem Mass Spectrometry (LC-MS/MS). LC-MS/MS analysis was performed using an API6500 Mass Spectrometer (Sciex, Framingham, Mass., USA) operating in positive ion spray mode and equipped with a Waters UPLC Acquity (Waters, Milford, Mass., USA) BEH Amide column. Multiple Reaction Monitoring data was acquired for SAM and the d3-SAM standard, using a mass transition pair at m/z 399.2→250.1 and 402.2→250.1, respectively. In a typical LC-MS/MS analysis, the initial flow rate was 0.5 ml/min of 25% mobile phase A (acetonitrile and water at 5:95 (v/v) with 1% formic acid and 10 mM ammonium acetate) and 75% mobile phase B (acetonitrile and water at 95:5 (v/v) with 1% formic acid and 10 mM ammonium acetate), 0.2-0.5 minutes with 75%-35% mobile phase B, 25%-65% mobile phase A, at 0.5 min 65% mobile phase A and 35% mobile phase B, 1.0-1.1 minutes with 35%-75% mobile phase B, 65%-25% mobile phase A, at 1.1 min 25% mobile phase A and 75% mobile phase B with a total run time of 1.5 minutes.
Specific compounds disclosed herein were tested in the foregoing assay and they were determined to inhibit SAM with an IC50. See, Table 1 below.

IC50 [1] [nM] | IC50 [2] [nM] | IC50 [3] [nM] | IC50 [4] [nM] | Structure (SMILES)
> 1000 | < 100 | < 100 | < 100 | Cn1cc2cc(-n3nc4ccn(CC5CC5)c4c(-c4ccc(OC(F)F)cc4)c3=O)ccc2n1 [Example 101, 5-(cyclopropylmethyl)-4-(4-(difluoromethoxy)phenyl)-2-(2-methyl-2H-indazol-5-yl)-2,5-dihydro-3H-pyrrolo[3,2-c]pyridazin-3-one]
> 1000 | < 100 | < 100 | < 100 | Cn1cc2cc(-n3nc4c(C#N)cn(CC5CC5)c4c(-c4ccc(OC(F)F)cc4)c3=O)ccc2n1 [Example 102, 5-(cyclopropylmethyl)-4-(4-(difluoromethoxy)phenyl)-2-(2-methyl-2H-indazol-5-yl)-3-oxo-3,5-dihydro-2H-pyrrolo[3,2-c]pyridazine-7-carbonitrile]
100 to 1000 | < 100 | < 100 | < 100 | Cc1ccc(-c2c(=O)n(-c3ccc4nn(C)cc4c3)nc3ccn(CC4CC4)c23)cn1 [Example 103, 5-(cyclopropylmethyl)-2-(2-methyl-2H-indazol-5-yl)-4-(6-methylpyridin-3-yl)-2,5-dihydro-3H-pyrrolo[3,2-c]pyridazin-3-one]
> 1000 | < 100 | < 100 | < 100 | Cc1ccc(-c2c(=O)n(-c3ccc4nn(C)cc4c3)nc3c(C#N)cn(CC4CC4)c23)cn1 [Example 104, 5-(cyclopropylmethyl)-2-(2-methyl-2H-indazol-5-yl)-4-(6-methylpyridin-3-yl)-3-oxo-3,5-dihydro-2H-pyrrolo[3,2-c]pyridazine-7-carbonitrile]
> 1000 | < 100 | < 100 | < 100 | Cn1cc2cc(-n3nc4ccn(CCC(F)(F)F)c4c(-c4ccc(OC(F)F)cc4)c3=O)ccc2n1 [Example 105, 4-(4-(difluoromethoxy)phenyl)-2-(2-methyl-2H-indazol-5-yl)-5-(3,3,3-trifluoropropyl)-2,5-dihydro-3H-pyrrolo[3,2-c]pyridazin-3-one]
> 1000 | < 100 | < 100 | < 100 | Cn1cc2cc(-n3nc4ccn(CC5CC5)c4c(-c4ccc(C5CC5)nc4)c3=O)ccc2n1 [Example 106, 5-(cyclopropylmethyl)-4-(6-cyclopropylpyridin-3-yl)-2-(2-methyl-2H-indazol-5-yl)-2,5-dihydro-3H-pyrrolo[3,2-c]pyridazin-3-one]
100 to 1000 | < 100 | < 100 | < 100 | Cn1cc2cc(-n3nc4c(C#N)cn(CC5CC5)c4c(-c4ccc(C5CC5)nc4)c3=O)ccc2n1 [Example 107, 5-(cyclopropylmethyl)-4-(6-cyclopropylpyridin-3-yl)-2-(2-methyl-2H-indazol-5-yl)-3-oxo-3,5-dihydro-2H-pyrrolo[3,2-c]pyridazine-7-carbonitrile]
100 to 1000 | > 1000 | 100 to 1000 | 100 to 1000 | Cc1ccc(-c2c(=O)n(-c3ccc4nn(C)cc4c3)nc3c(C#N)cn(CCC(F)(F)F)c23)cn1 [Example 108, 2-(2-methyl-2H-indazol-5-yl)-4-(6-methylpyridin-3-yl)-3-oxo-5-(3,3,3-trifluoropropyl)-3,5-dihydro-2H-pyrrolo[3,2-c]pyridazine-7-carbonitrile]
> 1000 | 100 to 1000 | < 100 | 100 to 1000 | Cn1cc2cc(-n3nc4c(C#N)cn(CCC(F)(F)F)c4c(-c4ccc(C5CC5)nc4)c3=O)ccc2n1 [Example 109, 4-(6-cyclopropylpyridin-3-yl)-2-(2-methyl-2H-indazol-5-yl)-3-oxo-5-(3,3,3-trifluoropropyl)-3,5-dihydro-2H-pyrrolo[3,2-c]pyridazine-7-carbonitrile]
> 1000 | < 100 | < 100 | < 100 | COc1ccc(-c2c(=O)n(-c3ccc4nn(C)cc4c3)nc3ccn(CC4CC4)c23)cn1 [Example 110, 5-(cyclopropylmethyl)-4-(6-methoxypyridin-3-yl)-2-(2-methyl-2H-indazol-5-yl)-2,5-dihydro-3H-pyrrolo[3,2-c]pyridazin-3-one]
> 1000 | < 100 | < 100 | < 100 | COc1ccc(-c2c(=O)n(-c3ccc4nn(C)cc4c3)nc3c(C#N)cn(CC4CC4)c23)cn1 [Example 111, 5-(cyclopropylmethyl)-4-(6-methoxypyridin-3-yl)-2-(2-methyl-2H-indazol-5-yl)-3-oxo-3,5-dihydro-2H-pyrrolo[3,2-c]pyridazine-7-carbonitrile]
> 1000 | < 100 | < 100 | < 100 | Cn1cc2cc(-n3nc4ccn(CC5CC5)c4c(-c4ccc(Cl)cc4)c3=O)ccc2n1 [Example 112, 4-(4-chlorophenyl)-5-(cyclopropylmethyl)-2-(2-methyl-2H-indazol-5-yl)-2,5-dihydro-3H-pyrrolo[3,2-c]pyridazin-3-one]
